Test results published in patent US10864211B2, “Hydroxy isoxazole compounds useful as GPR120 agonists” (Merck Sharp & Dohme Corp., priority 2016, dated 2020).
Where a name gives a salt, the structure may show the parent alone.

target: T1, human GPR120 (Homo sapiens, UniProt Q5NUL3); test: Human GPR120 IP1 assay (inositol phosphate turnover); assay type: cell-based; conditions: IP1 accumulation in CHO-K1 cells stably expressing the short form of human GPR120
T1 construct: expressed in transfected cells; host or cells: CHO-K1
T1 sequence (Q5NUL3 1-361): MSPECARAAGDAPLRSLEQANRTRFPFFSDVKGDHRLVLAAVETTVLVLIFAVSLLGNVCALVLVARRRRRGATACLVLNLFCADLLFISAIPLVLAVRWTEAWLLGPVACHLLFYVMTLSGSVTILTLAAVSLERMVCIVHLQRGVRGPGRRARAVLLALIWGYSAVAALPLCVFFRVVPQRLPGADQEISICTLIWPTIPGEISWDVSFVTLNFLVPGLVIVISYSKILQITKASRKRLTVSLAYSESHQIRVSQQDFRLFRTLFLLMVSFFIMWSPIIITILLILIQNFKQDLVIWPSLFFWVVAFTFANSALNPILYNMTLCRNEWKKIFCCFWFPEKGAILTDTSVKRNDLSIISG
Description: The binding of small molecule agonists to the G-protein-coupled receptor GPR120 activates phospholipase C, and leads to the generation of inositol 1,4,5-trisphosphate (InsP3 or IP3). IP3 is subsequently de-phosphorylated to IP1, which accumulates in cells and is stable in the presence of lithium chloride.
In the present method, agonist-induced activation of the human and rat GPR120 receptor was monitored by measuring the accumulation of IP1 in CHO-K1 cells that were stably expressing the short form of human GPR120 (Accession #NM_001195755) or HEK293 cells stably expressing rat GPR120 (Accession #NM_001047088). Following agonist addition, GPR120 activation and subsequent accumulation of IP1 was measured using a homogeneous Time Resolved Fluorescence-based ELISA commercially available from CisBio (IP-one ELISA Kit). The IP-One ELISA was a competitive immunoassay which uses IP1 labeled with […] and a terbium cryptate-labeled anti-IP1 monoclonal antibody. […] The signal loss was then back calculated to IP1 concentration using an IP1 standard curve. Determination of IP1 concentration was a direct measure of GPR120 activation and was used to determine compound potency (EC50).
Human GPR120 stable cell-lines were generated in CHO cells. The expression plasmids were transfected using lipofectamine (Life Technologies) following manufacturer's instructions. Stable cell-lines were generated following drug selection and single cell cloning. Rat GPR120 stable cell-lines were generated in HEK cells using the Jump-In™ cell engineering platform (Life Technologies) following manufacturer's instructions. Stable cell-lines were generated following drug selection and single cell cloning.
The assay was performed in 384-well format. CHO cells stably expressing human GPR120 were plated at 20,000 cells per well in growth medium (DMEM/F12, 10% fetal calf serum). HEK293 cells stably expressing rat GPR120 were plated at […] per well in growth medium (DMEM, 10% fetal calf serum). Cell plates were then incubated 16 hours at 37 degrees in a 5% CO2 incubator. Measurement of Inositol Phosphate Turnover (IP1) was performed using the CisBio IP-One kit (Part number 62IPAPEB). After the 16 hour incubation, the growth media was removed by centrifugation using the BlueWasher (AusWasher GUI Ver. v1.0.1.8) Protocol #21-“Light Dry” and 10 μl of stimulation buffer (prepared as described in the kit) was added to each well. In a separate plate, compounds were diluted in DMSO (200-fold over the final concentration in the assay well) and 50 nl was acoustically transferred to the appropriate well in the assay cell plate. The plates were then incubated for 60 minutes at 37 degrees in a 5% CO2 incubator. 10 μl of detection buffer (also prepared as described in the IP-One kit) was added to each well and the plates were incubated at room temperature for 60 minutes in the dark. The plates were then read in a Perkin ElmerEnVision or equivalent reader able to measure FRET. Fluorescent ratio of emission at 665 and 620 nm was then converted to the IP1 concentration by back calculating from an IP1 standard curve prepared at the time of the assay. The data was normalized to % activity using a reference compound, and the EC50 values were determined using a standard 4-parameter fit.

Q: For `Cc1cc([C@H]2C[C@@H](Oc3cnc(-c4cc(O)no4)cn3)C2)ccc1OC(F)(F)F` [Example 44, 5-[5-({cis-3-[3-methyl-4-(trifluoromethoxy)phenyl]cyclobutyl}oxy)pyrazin-2-yl]isoxazol-3-ol], which EC50 is on record?
A: 60 nM

Q: For `Oc1cc(-c2cnc(O[C@H]3C[C@@H](c4ccc(F)c(C(F)F)c4)C3)cn2)on1` [Example 45, 5-[5-({cis-3-[3-(difluoromethyl)-4-fluorophenyl]cyclobutyl}oxy)pyrazin-2-yl]isoxazol-3-ol], which EC50 is on record?
A: 24 nM

Q: For `Cc1ccc([C@H]2C[C@@H](Oc3cnc(-c4cc(O)no4)cn3)C2)c(F)c1` [Example 46, 5-(5-{[cis-3-(2-fluoro-4-methylphenyl)cyclobutyl]oxy}pyrazin-2-yl)isoxazol-3-ol], which EC50 is on record?
A: 36 nM

Q: Which EC50 does the source give for `Cc1ccc([C@H]2C[C@H](Oc3cnc(-c4cc(O)no4)cn3)C2)c(F)c1` [Example 47, 5-(5-{[trans-3-(2-fluoro-4-methylphenyl)cyclobutyl]oxy}pyrazin-2-yl)isoxazol-3-ol] here?
A: 104 nM

Q: For `Cc1ccc([C@H]2C[C@@H](Oc3cnc(-c4cc(O)no4)cn3)C2)c(F)c1` [Example 48, 5-(5-{[cis-3-(2-fluoro-4-methylphenyl)cyclobutyl]oxy}pyrazin-2-yl)isoxazol-3-ol], which EC50 is on record?
A: 24 nM

Q: Which EC50 does the source give for `Oc1cc(-c2cnc(O[C@H]3C[C@@H](c4c(F)cc(Cl)cc4F)C3)cn2)on1` [Example 49, ammonium 5-(5-{[cis-3-(4-chloro-2,6-difluorophenyl)-cyclobutyl]oxy}pyrazin-2-yl)isoxazol-3-olate] here?
A: 9.7 nM

Q: Which EC50 does the source give for `Oc1cc(-c2cnc(O[C@H]3C[C@@H](c4c(F)cc(OC(F)F)cc4F)C3)cn2)on1` [Example 50, ammonium 5-[5-({cis-3-[4-(difluoromethoxy)-2,6-difluorophenyl]cyclobutyl}oxy)pyrazin-2-yl]isoxazol-3-olate] here?
A: 23 nM

Q: With `Cc1cc(F)c([C@H]2C[C@@H](Oc3cnc(-c4cc(O)no4)cn3)C2)c(F)c1` [Example 51, ammonium 5-(5-{[cis-3-(2,6-difluoro-4-methyl-phenyl)-cyclobutyl]oxy}pyrazin-2-yl)isoxazol-3-olate] as the compound, how does the EC50 read?
A: 16 nM

Q: For `Oc1cc(-c2cnc(O[C@H]3C[C@@H](c4cc(F)c(Cl)c(F)c4)C3)cn2)on1` [Example 52, 5-(5-{[cis-3-(4-chloro-3,5-di-fluorophenyl)cyclobutyl]oxy}pyrazin-2-yl)isoxazol-3-ol], which EC50 is on record?
A: 28 nM

Q: `Oc1cc(-c2cnc(O[C@H]3C[C@@H](c4cc(F)c(OC(F)F)c(F)c4)C3)cn2)on1` [Example 53, ammonium 5-[5-({cis-3-[4-(difluoromethoxy)-3,5-di-fluorophenyl]cyclobutyl}oxy)pyrazin-2-yl]isoxazol-3-olate] was tested. Which EC50 did it give?
A: 14 nM

Q: For `COc1cc(OC)cc([C@H]2C[C@@H](Oc3cnc(-c4cc(O)no4)cn3)C2)c1` [Example 54, ammonium 5-(5-{[cis-3-(3,5-dimethoxyphenyl)cyclobutyl]oxy}pyrazin-2-yl)isoxazol-3-olate], which EC50 is on record?
A: 99 nM

Q: For `Oc1cc(-c2cnc(O[C@H]3C[C@@H](c4ccc(C(F)(F)F)cc4)C3)cn2)on1` [Example 55, 5-[5-({cis-3-[4-(trifluoromethyl)phenyl]cyclobutyl}oxy)pyrazin-2-yl]isoxazol-3-ol], which EC50 is on record?
A: 11 nM

Q: For `Oc1cc(-c2cnc(O[C@H]3C[C@@H](c4ccc(OC(F)(F)F)cc4)C3)cn2)on1` [Example 56, 5-[5-({cis-3-[4-(trifluoromethoxy)phenyl]cyclobutyl}oxy)pyrazin-2-yl]isoxazol-3-ol], which EC50 is on record?
A: 49 nM

Q: With `Cc1ccc([C@H]2C[C@@H](Oc3cnc(-c4cc(O)no4)cn3)C2)cc1F` [Example 57, 5-(5-{[cis-3-(3-fluoro-4-methylphenyl)cyclobutyl]oxy}pyrazin-2-yl)isoxazol-3-ol] as the compound, how does the EC50 read?
A: 23 nM

Q: With `Oc1cc(-c2cnc(O[C@H]3C[C@@H](c4ccc(OC(F)F)cc4)C3)cn2)on1` [Example 58, 5-[5-({cis-3-[4-(difluoromethoxy)phenyl]cyclobutyl}oxy)pyrazin-2-yl]isoxazol-3-ol] as the compound, how does the EC50 read?
A: 104 nM

Q: With `Oc1cc(-c2cnc(O[C@H]3C[C@@H](c4ccc(C(F)F)cc4)C3)cn2)on1` [Example 59, 5-[5-({cis-3-[4-(difluoromethyl)phenyl]cyclobutyl}oxy)pyrazin-2-yl]isoxazol-3-ol] as the compound, how does the EC50 read?
A: 8 nM

Q: For `Oc1cc(-c2cnc(O[C@H]3C[C@H](c4ccc(OC5CC5)cc4)C3)cn2)on1` [Example 60, 5-[5-({trans-3-[4-(cyclopropyloxyl)phenyl]cyclobutyl}oxy)pyrazin-2-yl]isoxazol-3-ol], which EC50 is on record?
A: 13 nM

Q: Which EC50 does the source give for `Oc1cc(-c2ccc(O[C@H]3C[C@@H](OCc4ccc(F)c(F)c4)C3)nc2)on1` [Example 62, 2-({cis-3-[(3,4-difluorobenzyl)oxy]cyclobutyl}oxy)-5-(3-hydroxy-isoxazol-5-yl)pyridinium trifluoroacetate] here?
A: 40 nM

Q: How did the EC50 turn out when `Oc1cc(-c2cnc(O[C@H]3C[C@@H](Oc4ccc(F)c(Cl)c4)C3)cn2)on1` [Example 63, ammonium 5-(5-{[cis-3-(3-chloro-4-fluorophenoxy)cyclobutyl]-oxy}pyrazin-2-yl)isoxazol-3-olate] was run?
A: 53 nM

Q: `Oc1cc(-c2ccc(OCC3CC(Oc4ccccc4)C3)nc2)on1` (stereo not shown) [Example 64, ammonium 5-{6-[(3-phenoxycyclobutyl)methoxy]pyridin-3-yl}isoxazol-3-olate] was tested. Which EC50 did it give?
A: 1990 nM

Q: With `Oc1cc(-c2cnc(O[C@H]3C[C@@H](COc4ccc(F)cc4)C3)cn2)on1` [Example 65, sodium 5-[5-({cis-3-[(4-fluorophenoxy)methyl]-cyclobutyl}oxy)pyrazin-2-yl]isoxazol-3-olate] as the compound, how does the EC50 read?
A: 5.8 nM

Q: For `Oc1cc(-c2cnc(O[C@H]3C[C@@H](Oc4cccc(C(F)(F)F)c4)C3)cn2)on1` [Example 66, ammonium 5-[5-({cis-3-[3-(trifluoromethyl)phenoxy]cyclobutyl}oxy)pyrazin-2-yl]isoxazol-3-olate], which EC50 is on record?
A: 37 nM

Q: Which EC50 does the source give for `Oc1cc(-c2cnc(O[C@H]3C[C@@H](Oc4ccc(C(F)(F)F)cc4)C3)cn2)on1` [Example 67, ammonium 5-[5-({cis-3-[4-(trifluoromethyl)phenoxy]cyclobutyl}oxy)pyrazin-2-yl]isoxazol-3-olate] here?
A: 47 nM

Q: For `Oc1cc(-c2cnc(O[C@H]3C[C@@H](Oc4cccc(OC(F)(F)F)c4)C3)cn2)on1` [Example 68, 5-[5-({cis-3-[3-(trifluoromethoxy)phenoxy]cyclobutyl}oxy)pyrazin-2-yl]isoxazol-3-ol], which EC50 is on record?
A: 52 nM

Q: With `Oc1cc(-c2cnc(O[C@H]3C[C@@H](Oc4csc(C(F)(F)F)c4)C3)cn2)on1` [Example 69, 5-{5-[(cis-3-{[5-(trifluoromethyl)thiophen-3-yl]oxy}cyclobutyl)oxy]pyrazin-2-yl}isoxazol-3-ol] as the compound, how does the EC50 read?
A: 25 nM

Q: Which EC50 does the source give for `Oc1cc(-c2cnc(O[C@H]3C[C@@H](Oc4ccc(F)c(C(F)(F)F)c4)C3)cn2)on1` [Example 70, 5-[5-({cis-3-[4-fluoro-3-(trifluoromethyl)phenoxy]cyclobutyl}oxy)pyrazin-2-yl]isoxazol-3-ol] here?
A: 24 nM

Q: How did the EC50 turn out when `Cc1cc(O[C@H]2C[C@@H](Oc3cnc(-c4cc(O)no4)cn3)C2)ccc1F` [Example 71, 5-(5-{[cis-3-(4-fluoro-3-methylphenoxy)cyclobutyl]oxy}pyrazin-2-yl)isoxazol-3-ol] was run?
A: 38 nM

Q: With `Oc1cc(-c2ccc(O[C@H]3C[C@@H](OCc4cccc(C(F)(F)F)c4)C3)nc2)on1` [Example 74, 5-(3-hydroxyisoxazol-5-yl)-2-[(cis-3-{[3-(trifluoromethyl)benzyl]oxy}cyclobutyl)oxy]pyridinium trifluoroacetate] as the compound, how does the EC50 read?
A: 11 nM
